# Assay results reported in ChEMBL document CHEMBL1201862, “PubChem BioAssay data set” (2004).
#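 Briefly, cells in 96-well plates were exposed to five compound concentrations for 48 h, and endpoints were estimated by linear interpolation. GI50 marks 50% less growth.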 Activity calls are given as the source filed them. Rule as the data show it: active = GI50 up to about 1.1 µM and inactive = higher.
# What was measured:
# Assay in all cases: NCI anticancer screen, dose series, 48 h
# CCRF-CEM = tested on: CCRF-CEM
# OVCAR-5 = tested on: OVCAR-5
# OVCAR-3 = tested on: OVCAR-3
# COLO 205 = tested on: COLO 205
# TK-10 = tested on: TK-10
# CAKI-1 = tested on: CAKI-1
# 786-0 = tested on: 786-0
# MOLT-4 = tested on: MOLT-4
# KM12 = tested on: KM12
# SNB-19 = tested on: SNB-19
# SW-620 = tested on: SW-620
# HOP-92 = tested on: HOP-92
# T47D = tested on: T47D
# OVCAR-4 = tested on: OVCAR-4
# NCI-H226 = tested on: NCI-H226
# A549 = tested on: A549
# SK-MEL-28 = tested on: SK-MEL-28
# ACHN = tested on: ACHN
# M14 = tested on: M14
Compound,GI50 (CCRF-CEM),GI50 (OVCAR-5),GI50 (OVCAR-3),GI50 (COLO 205),GI50 (TK-10),GI50 (CAKI-1),GI50 (786-0),GI50 (MOLT-4),GI50 (KM12),GI50 (SNB-19),GI50 (SW-620),GI50 (HOP-92),GI50 (T47D),GI50 (OVCAR-4),GI50 (NCI-H226),GI50 (A549),GI50 (SK-MEL-28),GI50 (ACHN),GI50 (M14)
O=[N+]([O-])c1ccc(N/N=C2\C=CCCC2)c([N+](=O)[O-])c1,> 100 µM (inactive),> 100 µM (inactive),> 100 µM (inactive),> 100 µM (inactive),> 100 µM (inactive),> 100 µM (inactive),> 100 µM (inactive),> 10 µM (inactive),> 100 µM (inactive),> 100 µM (inactive),> 100 µM (inactive),52.1 µM (inactive),> 100 µM (inactive),> 100 µM (inactive),> 100 µM (inactive),> 100 µM (inactive),> 100 µM (inactive),81.8 µM (inactive),> 100 µM (inactive)
C=C=C(CC1CCCCC1=O)S(=O)(=O)c1ccccc1 (configuration not stated),2.16 µM (inactive),> 10 µM (inactive),> 10 µM (inactive),> 10 µM (inactive),> 10 µM (inactive),> 10 µM (inactive),4.2 µM (inactive),0.0489 µM (active),,> 10 µM (inactive),2.86 µM (inactive),> 10 µM (inactive),> 10 µM (inactive),> 10 µM (inactive),> 10 µM (inactive),> 10 µM (inactive),> 10 µM (inactive),> 10 µM (inactive),3.12 µM (inactive)
CSc1nc(O)c(C#N)c(-c2ccccc2)n1,> 100 µM (inactive),> 100 µM (inactive),> 100 µM (inactive),> 100 µM (inactive),> 100 µM (inactive),> 100 µM (inactive),> 100 µM (inactive),> 100 µM (inactive),> 100 µM (inactive),> 100 µM (inactive),> 100 µM (inactive),97.5 µM (inactive),64.9 µM (inactive),> 100 µM (inactive),> 100 µM (inactive),> 100 µM (inactive),> 100 µM (inactive),> 100 µM (inactive),> 100 µM (inactive)
COc1cc(OCCN(C)C)c2[nH]c(C(=O)N3CC(CCl)c4c3cc(N)c3ccccc43)cc2c1 (configuration not stated),< 0.01 µM (active),< 0.01 µM (active),< 0.01 µM (active),< 0.01 µM (active),< 0.01 µM (active),< 0.01 µM (active),< 0.01 µM (active),,< 0.01 µM (active),< 0.01 µM (active),< 0.01 µM (active),< 0.01 µM (active),0.0139 µM (active),< 0.018 µM (active),< 0.01 µM (active),< 0.01 µM (active),< 0.01 µM (active),< 0.01 µM (active),< 0.01 µM (active)
c1ccc(C[n+]2ccc3c(c2)CCCC3)cc1,> 100 µM (inactive),> 100 µM (inactive),36.8 µM (inactive),66.5 µM (inactive),> 100 µM (inactive),> 100 µM (inactive),> 100 µM (inactive),> 100 µM (inactive),62.2 µM (inactive),49.5 µM (inactive),> 100 µM (inactive),> 100 µM (inactive),45.3 µM (inactive),56 µM (inactive),> 100 µM (inactive),77.3 µM (inactive),> 100 µM (inactive),64.6 µM (inactive),95.7 µM (inactive)
COC(=O)[C@H]1CO[C@H]2C/C(C)=C/CC/C(C)=C/CC[C@@]3(C)O[C@@H]3C[C@H]21,10 µM (inactive),> 50 µM (inactive),10.1 µM (inactive),10.8 µM (inactive),20 µM (inactive),36.1 µM (inactive),16.3 µM (inactive),10.4 µM (inactive),9.57 µM (inactive),> 50 µM (inactive),10.4 µM (inactive),17.5 µM (inactive),20.5 µM (inactive),9.48 µM (inactive),12 µM (inactive),16.3 µM (inactive),13.4 µM (inactive),17.5 µM (inactive),16.3 µM (inactive)
CCOC(=O)c1cc(C2CCN(CC(C)CC)C2=S)c(-c2cc(C)no2)[nH]1 (configuration not stated),> 100 µM (inactive),> 100 µM (inactive),> 100 µM (inactive),37.4 µM (inactive),,> 100 µM (inactive),> 100 µM (inactive),44.1 µM (inactive),49.2 µM (inactive),46.1 µM (inactive),> 100 µM (inactive),38 µM (inactive),50.4 µM (inactive),> 100 µM (inactive),55.3 µM (inactive),51.4 µM (inactive),> 100 µM (inactive),,> 100 µM (inactive)
O=C(NCC1Nc2ccncc2S(=O)(=O)N1)c1ccc(Br)cc1 (configuration not stated),,> 100 µM (inactive),30.8 µM (inactive),> 100 µM (inactive),> 100 µM (inactive),> 100 µM (inactive),> 100 µM (inactive),46.2 µM (inactive),40.6 µM (inactive),81.3 µM (inactive),41.2 µM (inactive),34.4 µM (inactive),> 100 µM (inactive),64.6 µM (inactive),> 100 µM (inactive),> 100 µM (inactive),92.5 µM (inactive),> 100 µM (inactive),19.3 µM (inactive)
NS(=O)(=O)c1cc2c(cc1Cl)NC(Cc1ccccc1)NS2(=O)=O (configuration not stated) [BENZYLHYDROCHLOROTHIAZIDE],,> 100 µM (inactive),> 100 µM (inactive),> 100 µM (inactive),> 100 µM (inactive),> 100 µM (inactive),> 100 µM (inactive),,> 100 µM (inactive),> 100 µM (inactive),41.7 µM (inactive),> 100 µM (inactive),> 100 µM (inactive),> 100 µM (inactive),> 100 µM (inactive),> 100 µM (inactive),> 100 µM (inactive),> 100 µM (inactive),> 100 µM (inactive)
COc1ccc(Cc2coc3ccccc3c2=O)cc1OC,> 100 µM (inactive),> 100 µM (inactive),78 µM (inactive),> 100 µM (inactive),> 100 µM (inactive),11.6 µM (inactive),> 100 µM (inactive),49.3 µM (inactive),,> 100 µM (inactive),> 100 µM (inactive),> 100 µM (inactive),33.2 µM (inactive),28.4 µM (inactive),94 µM (inactive),> 100 µM (inactive),> 100 µM (inactive),72.4 µM (inactive),53.8 µM (inactive)
c1cncc(CNc2ncn[nH]2)c1,,> 100 µM (inactive),> 100 µM (inactive),> 100 µM (inactive),> 100 µM (inactive),> 100 µM (inactive),> 100 µM (inactive),> 100 µM (inactive),> 100 µM (inactive),> 100 µM (inactive),> 100 µM (inactive),> 100 µM (inactive),> 100 µM (inactive),> 100 µM (inactive),> 100 µM (inactive),> 100 µM (inactive),> 100 µM (inactive),> 100 µM (inactive),> 100 µM (inactive)
CN1C(=O)C(=CNc2ccc(Cl)cc2Cl)C(=O)N(C)C1=O,13.9 µM (inactive),> 100 µM (inactive),> 100 µM (inactive),> 100 µM (inactive),> 100 µM (inactive),> 100 µM (inactive),> 100 µM (inactive),66.5 µM (inactive),> 100 µM (inactive),> 100 µM (inactive),> 100 µM (inactive),> 100 µM (inactive),> 100 µM (inactive),> 100 µM (inactive),> 100 µM (inactive),> 100 µM (inactive),,> 100 µM (inactive),> 100 µM (inactive)
CC1(C)CC(=O)C2=C(C1)N(c1ccccc1)C1(O)C=CC(O)=C3C(=O)c4ccccc4C(=O)C321 (configuration not stated),4.06 µM (inactive),42.8 µM (inactive),37.8 µM (inactive),33.6 µM (inactive),24.4 µM (inactive),26.2 µM (inactive),33.1 µM (inactive),12.5 µM (inactive),23 µM (inactive),21.7 µM (inactive),,24.1 µM (inactive),45.3 µM (inactive),14.7 µM (inactive),18.7 µM (inactive),67.5 µM (inactive),17.8 µM (inactive),21.1 µM (inactive),40.5 µM (inactive)
Cc1sc2nc(N(C)C)oc(=O)c2c1C,94.6 µM (inactive),> 100 µM (inactive),,> 100 µM (inactive),> 100 µM (inactive),76.9 µM (inactive),> 100 µM (inactive),73.8 µM (inactive),> 100 µM (inactive),> 100 µM (inactive),> 100 µM (inactive),> 100 µM (inactive),58.7 µM (inactive),> 100 µM (inactive),> 100 µM (inactive),85.9 µM (inactive),> 100 µM (inactive),79.8 µM (inactive),> 100 µM (inactive)
CC12CC(C/C1=N/O)C(C)(C)C2 (configuration not stated),> 100 µM (inactive),> 100 µM (inactive),> 100 µM (inactive),> 100 µM (inactive),> 100 µM (inactive),> 100 µM (inactive),> 100 µM (inactive),,> 100 µM (inactive),> 100 µM (inactive),> 100 µM (inactive),> 100 µM (inactive),> 100 µM (inactive),> 100 µM (inactive),> 100 µM (inactive),> 100 µM (inactive),> 100 µM (inactive),> 100 µM (inactive),> 100 µM (inactive)
